According to ChEMBL document CHEMBL5241077 (Eur J Med Chem, 2021):
In brackets after ≈: the same amount, converted by molar mass.

Columns and labels:
dengue virus type 2 [1] = experiment: Antiviral activity against DENV2 […] infected in hamster BHK-21 cells assessed as reduction viral titer incubated for 48 hrs by plaque assay; type: functional, organism-based; settings: BHK-21, 48 h
dengue virus type 2 [2] = experiment: Antiviral activity against DENV2 New Guinea C infected in hamster BHK-21 cells assessed as reduction viral titer incubated for 48 hrs by plaque assay; type: functional, organism-based; settings: BHK-21, 48 h
dengue virus type 2 [3] = experiment: Antiviral activity against DENV2 infected hamster BHK cells assessed as inhibition of virus-induced cytopathogenicity and measured after 20 hrs by flow cytometry; type: functional, organism-based
dengue virus type 2 [4] = experiment: Antiviral activity against DENV2 infected in human HEK293 cells assessed as reduction in viral load incubated for 3 days by plaque reduction assay; type: functional; settings: HEK293, 72 h, time 3 day
[5] = Binding affinity to Dengue virus serotype 2 envelope stem (419 to 447 residues) trimer peptide incubated for 3 hrs by fluorescence polarization assay; parameters: species or system dengue virus type 2
dengue virus type 2 [6] = experiment: Antiviral activity against DENV2 ThNH-7/93 infected in hamster BHK-21 cells assessed as reduction in viral entry incubated for 2 hrs by focus forming assay; type: functional, organism-based; settings: ThNH-7/93, BHK-21, 2 h
dengue virus type 2 [7] = experiment: Antiviral activity against DENV2 infected in African green monkey Vero E6 cells assessed as inhibition of viral titer incubated for 48 hrs by plaque reduction assay; type: functional, organism-based
dengue virus type 2 [8] = experiment: Antiviral activity against DENV2 TSV01 infected in Asian tiger mosquito C6/36 cells assessed as reduction in plaque forming unit incubated for 1 hrs by propidium iodide staining based fluorescence analysis; type: functional, organism-based; settings: TSV01, C6/36, 1 h
dengue virus type 2 [9] = experiment: Antiviral activity against DENV2 ThNH-7/93 infected in hamster BHK-21 cells assessed as reduction in virus titer incubated for 2 hrs by focus forming assay; type: functional, organism-based; settings: ThNH-7/93, BHK-21, 2 h
dengue virus type 2 [10] = experiment: Antiviral activity against DENV2 16681 infected in African green monkey Vero E6 cells assessed as inhibition of virus-induced cytopathic effect incubated for 1.5 hrs by plaque assay; type: functional, organism-based; settings: Dengue virus, 16681, Vero
dengue virus type 2 [11] = experiment: Antiviral activity against DENV2 PL046 infected in hamster BHK-21 cells assessed as reduction in plaque forming unit incubated for 7 days by crystal violet staining analysis; type: functional, organism-based; settings: PL046, BHK-21, 168 h
dengue virus type 2 [12] = experiment: Antiviral activity against DENV2 infected in African green monkey Vero E6 cells assessed as inhibition of viral replication incubated for 5 days by crystal violet staining based plaque reduction assay; type: functional, organism-based; settings: 120 h

**Q.** With CC(=O)N[C@@H]1[C@@H](O[C@@H]2O[C@@H](C(=O)O)[C@@H](O)[C@H](O)[C@H]2O)[C@@H](OS(=O)(=O)O)[C@@H](CO)O[C@H]1O as the compound, how does the IC50 (dengue virus type 2 [1]) read?
**A.** 0.3 µg/mL (≈ 0.628 µM)

**Q.** What about the IC50 (dengue virus type 2 [2]) of the same compound?
**A.** 3 µg/mL (≈ 6.28 µM)

**Q.** For O=S(=O)(O)O[C@@H]1[C@@H](OS(=O)(=O)O)[C@H](O[C@@H]2CO[C@@H](O)[C@H](OS(=O)(=O)O)[C@H]2OS(=O)(=O)O)OC[C@H]1O, which EC50 (dengue virus type 2 [3]) is on record?
**A.** 30 µg/mL (≈ 49.8 µM)

**Q.** With Nc1c(C(=O)Nc2nc(-c3ccccc3)cs2)sc2nc3c(cc12)CN(c1ccccc1)CC3 as the compound, how does the IC90 (dengue virus type 2 [4]) read?
**A.** 0.025 µM

**Q.** For N#C/C(=N\Nc1cccc(Cl)c1)C(=O)c1ccco1, which IC50 [5] is on record?
**A.** 15 µM

**Q.** Which EC50 (dengue virus type 2 [6]) does the source give for CC(=O)N[C@@H]1[C@@H](O[C@@H]2O[C@H](C(=O)O)[C@@H](O)[C@H](O)[C@H]2O)[C@@H](O)[C@@H](OS(=O)(=O)O)O[C@H]1O here?
**A.** 1.5 µg/mL (≈ 3.24 µM)

**Q.** For CO[C@H]1O[C@H](COS(=O)(=O)O)[C@H](O[C@@H]2O[C@H](CO)[C@H](O)[C@H](C)[C@H]2OS(=O)(=O)O)[C@H](O)[C@H]1OS(=O)(=O)O, which IC50 (dengue virus type 2 [7]) is on record?
**A.** 0.14 µg/mL (≈ 0.235 µM)

**Q.** Which EC50 (dengue virus type 2 [3]) does the source give for O=P(O)(O)OC[C@H]1O[C@H](OC2[C@H](OS(=O)(=O)O)[C@@H](OC3C(OS(=O)(=O)O)O[C@H](COS(=O)(=O)O)[C@@H](OS(=O)(=O)O)[C@@H]3OS(=O)(=O)O)O[C@H](COS(=O)(=O)O)[C@H]2OS(=O)(=O)O)[C@@H](OS(=O)(=O)O)[C@@H](OS(=O)(=O)O)[C@@H]1OS(=O)(=O)O (stereo not given in full) here?
**A.** 200 µg/mL (≈ 144 µM)

**Q.** Which IC50 (dengue virus type 2 [8]) does the source give for O=C(O)c1cc(=O)c2ccc(S[C@@H](/C=C/C=C/CCOc3ccc(Cl)c(Cl)c3)[C@H](O)c3cccc(C(F)(F)F)c3)cc2o1 here?
**A.** 6.8 µM

**Q.** Which IC90 (dengue virus type 2 [4]) does the source give for Nc1c(C(=O)Nc2nc(-c3ccccc3)cs2)sc2nc3c(cc12)CC(c1ccccc1)CC3 (stereo not given) here?
**A.** 0.112 µM

**Q.** Which IC50 (dengue virus type 2 [9]) does the source give for C[C@@H]1O[C@H](C)[C@@H](O)[C@H](O)[C@@H]1OS(=O)(=O)O here?
**A.** 4.7 µg/mL (≈ 19.4 µM)

**Q.** With O=C(O)C[C@@H]1C(=O)O[C@H]2[C@@H]3OC(=O)c4cc(O)c(O)c(O)c4-c4c(cc(O)c(O)c4O)C(=O)OC[C@H]2O[C@@H](OC(=O)c2cc(O)c(O)c(O)c2)[C@@H]3OC(=O)c2cc(O)c(O)c3c2[C@H]1[C@H](O)C(=O)O3 [CHEBULAGIC ACID] as the compound, how does the EC50 (dengue virus type 2 [10]) read?
**A.** 13.1 µM

**Q.** Which IC50 (dengue virus type 2 [11]) does the source give for C[C@H]1c2cccc(O)c2C(=O)C2=C(O)[C@]3(O)C(=O)C(C(N)=O)=C(O)[C@@H](N(C)C)[C@@H]3[C@@H](O)[C@@H]21 [DOXYCYCLINE] here?
**A.** 55.6 µM

**Q.** Which IC50 (dengue virus type 2 [12]) does the source give for O=C1O[C@H]2[C@@H]3OC(=O)c4cc(O)c(O)c(O)c4-c4c(cc(O)c(O)c4O)C(=O)OC[C@H]2O[C@@H](OC(=O)c2cc(O)c(O)c(O)c2)[C@@H]3OC(=O)c2cc(O)c(O)c3c2[C@@H]2C1=CC(=O)[C@](O)(O3)C2(O)O [GERANIIN] here?
**A.** 1.75 µM

**Q.** Which IC50 (dengue virus type 2 [11]) does the source give for CN(C)[C@@H]1C(O)=C(C(=O)NCN2CCCC2)C(=O)[C@@]2(O)C(O)=C3C(=O)c4c(O)cccc4[C@@](C)(O)[C@H]3C[C@@H]12 [ROLITETRACYCLINE] here?
**A.** 67.1 µM
